ChEMBL document CHEMBL5212743, “Selectivity Literature for EUbOPEN Chemogenomics Library wave 3” (2023)
Values belong to the compound of their own block, whether it stands above or below them.

Key:
[1] = molecular target: Substance-K receptor (Homo sapiens) (UniProt P21452); assay: Selectivity interaction (CEREP panel (GPCRS, ion channels, transporters)) EUB0000193b TACR2; conditions: Inactive against protein arginine methyltransferases,, at 10 µM
[2] = molecular target: T1, Adenosine receptor A1 (Homo sapiens) (UniProt P30542); assay: (§1) Selectivity interaction (CEREP panel (GPCRS, ion channels, transporters)) EUB0000193b ADORA1; conditions: Inactive against protein arginine methyltransferases,, at 10 µM
T1 sequence (whole entry): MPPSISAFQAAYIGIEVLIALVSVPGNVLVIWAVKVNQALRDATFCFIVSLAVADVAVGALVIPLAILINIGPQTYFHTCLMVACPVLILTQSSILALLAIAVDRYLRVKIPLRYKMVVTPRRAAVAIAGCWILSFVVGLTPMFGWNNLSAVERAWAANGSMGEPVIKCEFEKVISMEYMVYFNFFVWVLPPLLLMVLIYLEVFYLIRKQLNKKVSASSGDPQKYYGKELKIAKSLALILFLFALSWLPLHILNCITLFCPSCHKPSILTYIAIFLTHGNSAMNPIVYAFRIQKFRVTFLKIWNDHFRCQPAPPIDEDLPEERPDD

[3] = molecular target: Histone-lysine N-methyltransferase NSD2 (Homo sapiens) (UniProt O96028); assay: Selectivity interaction (Epigenetic methyltransferases panel) EUB0000193b NSD2; conditions: Inactive against protein arginine methyltransferases,, at 10 µM
[4] = molecular target: Delta-type opioid receptor (Homo sapiens) (UniProt P41143); assay: Selectivity interaction (CEREP panel (GPCRS, ion channels, transporters)) EUB0000193b OPRD1; conditions: Inactive against protein arginine methyltransferases,, at 10 µM
Adenosine receptor A1 = Adenosine receptor A1 (Homo sapiens, UniProt P30542); assay: as §1
[5] = molecular target: Adenosine receptor A2a (Homo sapiens) (UniProt P29274); assay: Selectivity interaction (CEREP panel (GPCRS, ion channels, transporters)) EUB0000193b ADORA2A; conditions: Inactive against protein arginine methyltransferases,, at 10 µM
[6] = molecular target: T2, Gamma-aminobutyric acid receptor subunit alpha-1 (Homo sapiens, UniProt P14867); assay: (§2) Selectivity interaction (CEREP panel (GPCRS, ion channels, transporters)) EUB0000193b GABRA1
T2 sequence (P14867 whole entry): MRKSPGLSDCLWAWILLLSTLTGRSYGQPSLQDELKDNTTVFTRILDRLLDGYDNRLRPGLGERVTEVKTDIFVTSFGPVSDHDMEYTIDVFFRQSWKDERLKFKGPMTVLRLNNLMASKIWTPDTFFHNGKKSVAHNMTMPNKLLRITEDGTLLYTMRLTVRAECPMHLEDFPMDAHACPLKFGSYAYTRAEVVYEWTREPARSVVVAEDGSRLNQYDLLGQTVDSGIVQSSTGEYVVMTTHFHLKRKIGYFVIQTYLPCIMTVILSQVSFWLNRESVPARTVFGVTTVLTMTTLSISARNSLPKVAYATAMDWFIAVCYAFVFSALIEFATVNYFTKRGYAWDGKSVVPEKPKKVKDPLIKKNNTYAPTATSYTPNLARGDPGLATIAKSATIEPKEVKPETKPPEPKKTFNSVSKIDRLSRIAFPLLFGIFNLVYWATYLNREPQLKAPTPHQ

[7] = molecular target: T3, Adenosine receptor A3 (Homo sapiens) (UniProt P0DMS8); assay: Selectivity interaction (CEREP panel (GPCRS, ion channels, transporters)) EUB0000193b ADORA3; conditions: Inactive against protein arginine methyltransferases,, at 10 µM
T3 sequence (whole entry): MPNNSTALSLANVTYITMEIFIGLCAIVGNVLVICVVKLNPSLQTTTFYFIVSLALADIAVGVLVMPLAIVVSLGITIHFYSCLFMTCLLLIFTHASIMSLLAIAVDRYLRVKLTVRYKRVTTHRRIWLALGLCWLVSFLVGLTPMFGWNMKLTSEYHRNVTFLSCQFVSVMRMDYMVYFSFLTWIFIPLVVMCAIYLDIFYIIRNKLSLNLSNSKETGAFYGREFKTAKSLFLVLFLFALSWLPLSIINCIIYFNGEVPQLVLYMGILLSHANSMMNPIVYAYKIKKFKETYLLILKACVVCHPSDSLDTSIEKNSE

[8] = molecular target: Kappa-type opioid receptor (Homo sapiens, UniProt P41145); assay: Selectivity interaction (CEREP panel (GPCRS, ion channels, transporters)) EUB0000193b OPRK1; conditions: Inactive against protein arginine methyltransferases,, at 10 µM
[9] = molecular target: T4, Gamma-aminobutyric acid receptor subunit alpha-1 (Homo sapiens) (UniProt P14867); assay: as §2; conditions: Inactive against protein arginine methyltransferases,, at 10 µM
T4 sequence (whole entry): T2 sequence (P14867 whole entry)

[10] = molecular target: Serine/threonine-protein kinase WNK2 (Homo sapiens) (UniProt Q9Y3S1); assay: Selectivity interaction (KinomeScan (DiscoverX)) EUB0000303b WNK2; conditions: at 1 µM
[11] = molecular target: T5, Serine/threonine-protein kinase Sgk1 (Homo sapiens) (UniProt O00141); assay: Selectivity interaction (KinomeScan (DiscoverX)) EUB0000303b SGK1; conditions: at 1 µM
T5 sequence (whole entry): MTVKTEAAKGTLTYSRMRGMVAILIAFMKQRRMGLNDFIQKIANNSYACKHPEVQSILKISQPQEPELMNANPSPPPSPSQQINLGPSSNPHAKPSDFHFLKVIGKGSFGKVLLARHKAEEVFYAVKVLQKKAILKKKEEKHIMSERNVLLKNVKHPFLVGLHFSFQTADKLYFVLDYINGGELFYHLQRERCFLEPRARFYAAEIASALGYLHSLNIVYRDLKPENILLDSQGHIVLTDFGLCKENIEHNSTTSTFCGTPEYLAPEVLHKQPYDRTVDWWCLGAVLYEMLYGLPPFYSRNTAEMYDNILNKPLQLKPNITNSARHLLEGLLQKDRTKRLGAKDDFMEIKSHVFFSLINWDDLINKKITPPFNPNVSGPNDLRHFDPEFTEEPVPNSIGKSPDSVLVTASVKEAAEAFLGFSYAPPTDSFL

[12] = molecular target: Beta-adrenergic receptor kinase 1 (Homo sapiens) (UniProt P25098); assay: Selectivity interaction (KinomeScan (DiscoverX)) EUB0000303b ADRBK1; conditions: at 1 µM
[13] = molecular target: T6, Ephrin type-B receptor 6 (Homo sapiens) (UniProt O15197); assay: Selectivity interaction (KinomeScan (DiscoverX)) EUB0000303b EPHB6; conditions: at 1 µM
T6 sequence (whole entry): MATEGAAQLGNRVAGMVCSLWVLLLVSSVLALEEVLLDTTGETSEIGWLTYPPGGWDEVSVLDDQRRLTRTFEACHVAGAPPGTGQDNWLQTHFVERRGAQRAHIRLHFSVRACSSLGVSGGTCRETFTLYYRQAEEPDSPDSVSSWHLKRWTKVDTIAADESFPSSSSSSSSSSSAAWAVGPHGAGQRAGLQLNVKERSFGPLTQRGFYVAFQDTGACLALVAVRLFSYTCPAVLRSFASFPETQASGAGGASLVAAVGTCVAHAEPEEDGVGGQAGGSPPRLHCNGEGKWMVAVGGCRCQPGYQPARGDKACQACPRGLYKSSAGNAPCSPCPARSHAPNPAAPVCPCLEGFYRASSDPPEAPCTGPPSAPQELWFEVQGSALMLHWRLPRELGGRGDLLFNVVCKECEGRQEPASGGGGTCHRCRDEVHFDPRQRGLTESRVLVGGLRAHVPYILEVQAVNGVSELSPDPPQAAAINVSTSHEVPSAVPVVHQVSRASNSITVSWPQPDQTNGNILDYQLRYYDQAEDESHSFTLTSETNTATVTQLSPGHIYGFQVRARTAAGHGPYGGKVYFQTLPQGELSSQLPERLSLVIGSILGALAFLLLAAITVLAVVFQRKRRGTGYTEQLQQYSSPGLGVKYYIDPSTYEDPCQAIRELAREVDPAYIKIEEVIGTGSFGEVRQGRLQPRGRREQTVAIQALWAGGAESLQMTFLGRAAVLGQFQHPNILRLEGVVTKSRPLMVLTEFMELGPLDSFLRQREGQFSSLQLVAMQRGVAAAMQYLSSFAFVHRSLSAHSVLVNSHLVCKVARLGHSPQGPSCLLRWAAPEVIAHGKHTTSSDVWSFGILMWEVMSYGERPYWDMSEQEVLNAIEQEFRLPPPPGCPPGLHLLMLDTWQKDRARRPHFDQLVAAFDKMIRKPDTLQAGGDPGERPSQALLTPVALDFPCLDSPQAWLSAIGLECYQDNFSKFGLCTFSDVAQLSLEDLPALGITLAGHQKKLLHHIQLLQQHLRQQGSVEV

[14] = molecular target: Voltage-gated inwardly rectifying potassium channel KCNH2 (Homo sapiens, UniProt Q12809); assay: Selectivity interaction (Ricerca panel (GPCRs, ion channels, transporters, enzymes, and proteases)) EUB0000303b KCNH2; conditions: at 10 µM
[15] = molecular target: Sodium-dependent dopamine transporter (Homo sapiens, UniProt Q01959); assay: Selectivity interaction (GPCR panel (PDSP screen)) EUB0000303b SLC6A3
[16] = molecular target: T7, Serine/threonine-protein kinase LATS2 (Homo sapiens) (UniProt Q9NRM7); assay: Selectivity interaction (KinomeScan (DiscoverX)) EUB0000303b LATS2; conditions: at 1 µM
T7 sequence (whole entry): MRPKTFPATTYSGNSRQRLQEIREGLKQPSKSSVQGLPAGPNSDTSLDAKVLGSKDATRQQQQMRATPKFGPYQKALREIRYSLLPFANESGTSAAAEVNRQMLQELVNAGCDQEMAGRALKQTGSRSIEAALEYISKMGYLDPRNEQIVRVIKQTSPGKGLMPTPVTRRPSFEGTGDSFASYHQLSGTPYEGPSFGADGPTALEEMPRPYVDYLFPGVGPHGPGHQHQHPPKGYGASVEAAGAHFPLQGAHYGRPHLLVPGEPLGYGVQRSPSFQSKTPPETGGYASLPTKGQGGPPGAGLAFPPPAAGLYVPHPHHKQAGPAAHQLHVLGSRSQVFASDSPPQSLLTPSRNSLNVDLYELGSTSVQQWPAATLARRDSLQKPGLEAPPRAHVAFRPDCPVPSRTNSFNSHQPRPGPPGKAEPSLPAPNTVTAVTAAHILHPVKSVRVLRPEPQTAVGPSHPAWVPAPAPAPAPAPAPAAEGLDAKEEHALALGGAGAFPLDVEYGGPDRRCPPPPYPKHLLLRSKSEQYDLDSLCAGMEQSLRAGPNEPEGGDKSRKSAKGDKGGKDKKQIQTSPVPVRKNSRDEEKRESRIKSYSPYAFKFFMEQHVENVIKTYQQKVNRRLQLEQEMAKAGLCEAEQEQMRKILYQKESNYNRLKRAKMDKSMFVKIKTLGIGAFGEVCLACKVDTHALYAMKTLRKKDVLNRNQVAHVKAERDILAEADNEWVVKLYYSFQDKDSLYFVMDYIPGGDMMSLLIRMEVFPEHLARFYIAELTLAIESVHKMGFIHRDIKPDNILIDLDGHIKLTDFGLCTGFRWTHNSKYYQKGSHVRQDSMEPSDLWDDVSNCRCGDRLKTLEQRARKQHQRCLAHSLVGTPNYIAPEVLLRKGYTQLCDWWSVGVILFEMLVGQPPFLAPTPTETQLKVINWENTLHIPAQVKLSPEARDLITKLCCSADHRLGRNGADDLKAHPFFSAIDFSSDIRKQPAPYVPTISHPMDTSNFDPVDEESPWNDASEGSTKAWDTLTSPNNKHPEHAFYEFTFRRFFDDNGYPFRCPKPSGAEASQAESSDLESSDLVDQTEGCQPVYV

[17] = molecular target: T2, Gamma-aminobutyric acid receptor subunit alpha-1; assay: Selectivity interaction (GPCR panel (PDSP screen)) EUB0000303b GABRA1
[18] = molecular target: Ribosomal protein S6 kinase alpha-3 (Homo sapiens) (UniProt P51812); assay: Selectivity interaction (KinomeScan (DiscoverX)) EUB0000303b RPS6KA3; conditions: at 1 µM
[19] = molecular target: Glutamate receptor ionotropic, NMDA 1 (Homo sapiens, UniProt Q05586); assay: Selectivity interaction (PRESTO-Tango GPCR-ome screening) EUB0000539a GRIN1

Voltage-gated inwardly rectifying potassium channel KCNH2, sequence (Q12809 whole entry): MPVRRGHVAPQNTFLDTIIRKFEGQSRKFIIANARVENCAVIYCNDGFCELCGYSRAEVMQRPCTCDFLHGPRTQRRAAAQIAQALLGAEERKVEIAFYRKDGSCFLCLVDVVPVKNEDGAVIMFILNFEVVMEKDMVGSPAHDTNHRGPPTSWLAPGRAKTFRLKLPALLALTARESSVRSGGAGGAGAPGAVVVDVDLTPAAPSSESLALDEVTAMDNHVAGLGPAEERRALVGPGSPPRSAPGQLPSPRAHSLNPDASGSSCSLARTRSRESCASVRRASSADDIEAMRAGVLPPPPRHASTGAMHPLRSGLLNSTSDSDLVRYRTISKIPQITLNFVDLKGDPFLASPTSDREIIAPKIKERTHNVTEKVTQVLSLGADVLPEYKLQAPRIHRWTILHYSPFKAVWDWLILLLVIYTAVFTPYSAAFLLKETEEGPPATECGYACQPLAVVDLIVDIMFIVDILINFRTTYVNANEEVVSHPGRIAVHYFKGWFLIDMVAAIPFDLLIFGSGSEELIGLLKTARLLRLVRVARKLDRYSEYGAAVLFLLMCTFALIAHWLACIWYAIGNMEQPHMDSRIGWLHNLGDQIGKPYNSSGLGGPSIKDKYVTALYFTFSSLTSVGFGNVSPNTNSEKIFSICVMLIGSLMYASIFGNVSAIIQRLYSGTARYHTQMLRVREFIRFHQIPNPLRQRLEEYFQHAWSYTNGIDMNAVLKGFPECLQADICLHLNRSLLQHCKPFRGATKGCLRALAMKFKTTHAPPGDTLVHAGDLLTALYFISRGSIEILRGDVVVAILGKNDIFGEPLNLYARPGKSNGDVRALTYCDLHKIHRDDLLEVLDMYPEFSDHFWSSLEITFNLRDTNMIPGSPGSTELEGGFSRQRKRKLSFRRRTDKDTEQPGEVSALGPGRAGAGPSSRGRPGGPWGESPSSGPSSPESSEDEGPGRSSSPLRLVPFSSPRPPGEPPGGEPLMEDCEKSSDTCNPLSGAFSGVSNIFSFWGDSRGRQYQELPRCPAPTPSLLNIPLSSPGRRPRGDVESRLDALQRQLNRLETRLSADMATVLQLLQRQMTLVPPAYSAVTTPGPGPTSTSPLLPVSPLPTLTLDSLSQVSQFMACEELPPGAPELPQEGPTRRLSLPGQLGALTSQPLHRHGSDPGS
Kappa-type opioid receptor, sequence (P41145 whole entry): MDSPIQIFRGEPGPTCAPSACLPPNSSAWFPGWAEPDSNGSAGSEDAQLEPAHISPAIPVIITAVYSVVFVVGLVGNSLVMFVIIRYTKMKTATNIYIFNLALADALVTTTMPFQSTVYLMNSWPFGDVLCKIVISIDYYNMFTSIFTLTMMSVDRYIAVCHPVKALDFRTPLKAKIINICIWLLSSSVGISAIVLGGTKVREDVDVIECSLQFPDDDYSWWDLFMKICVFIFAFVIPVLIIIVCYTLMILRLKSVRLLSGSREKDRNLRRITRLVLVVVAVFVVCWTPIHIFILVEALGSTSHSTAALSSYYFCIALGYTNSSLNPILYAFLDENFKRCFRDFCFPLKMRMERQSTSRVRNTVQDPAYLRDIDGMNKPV
Sodium-dependent dopamine transporter, sequence (Q01959 whole entry): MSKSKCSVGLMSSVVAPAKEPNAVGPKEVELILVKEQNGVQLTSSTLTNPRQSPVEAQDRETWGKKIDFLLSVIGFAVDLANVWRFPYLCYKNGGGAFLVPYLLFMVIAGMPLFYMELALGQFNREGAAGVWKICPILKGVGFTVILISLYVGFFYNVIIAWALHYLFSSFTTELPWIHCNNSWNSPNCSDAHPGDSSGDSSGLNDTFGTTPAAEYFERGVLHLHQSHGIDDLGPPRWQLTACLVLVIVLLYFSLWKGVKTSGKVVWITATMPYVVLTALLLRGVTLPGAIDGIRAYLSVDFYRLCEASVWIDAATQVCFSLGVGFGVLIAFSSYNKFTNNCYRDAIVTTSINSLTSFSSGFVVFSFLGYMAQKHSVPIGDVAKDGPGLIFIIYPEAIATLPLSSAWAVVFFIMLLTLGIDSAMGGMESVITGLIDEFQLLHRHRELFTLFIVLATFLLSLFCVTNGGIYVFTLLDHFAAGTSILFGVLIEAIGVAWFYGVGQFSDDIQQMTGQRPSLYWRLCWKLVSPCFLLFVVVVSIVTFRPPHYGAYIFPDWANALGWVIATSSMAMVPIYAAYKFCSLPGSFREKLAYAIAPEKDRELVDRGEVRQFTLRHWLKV
Beta-adrenergic receptor kinase 1 (Homo sapiens), sequence (P25098 whole entry): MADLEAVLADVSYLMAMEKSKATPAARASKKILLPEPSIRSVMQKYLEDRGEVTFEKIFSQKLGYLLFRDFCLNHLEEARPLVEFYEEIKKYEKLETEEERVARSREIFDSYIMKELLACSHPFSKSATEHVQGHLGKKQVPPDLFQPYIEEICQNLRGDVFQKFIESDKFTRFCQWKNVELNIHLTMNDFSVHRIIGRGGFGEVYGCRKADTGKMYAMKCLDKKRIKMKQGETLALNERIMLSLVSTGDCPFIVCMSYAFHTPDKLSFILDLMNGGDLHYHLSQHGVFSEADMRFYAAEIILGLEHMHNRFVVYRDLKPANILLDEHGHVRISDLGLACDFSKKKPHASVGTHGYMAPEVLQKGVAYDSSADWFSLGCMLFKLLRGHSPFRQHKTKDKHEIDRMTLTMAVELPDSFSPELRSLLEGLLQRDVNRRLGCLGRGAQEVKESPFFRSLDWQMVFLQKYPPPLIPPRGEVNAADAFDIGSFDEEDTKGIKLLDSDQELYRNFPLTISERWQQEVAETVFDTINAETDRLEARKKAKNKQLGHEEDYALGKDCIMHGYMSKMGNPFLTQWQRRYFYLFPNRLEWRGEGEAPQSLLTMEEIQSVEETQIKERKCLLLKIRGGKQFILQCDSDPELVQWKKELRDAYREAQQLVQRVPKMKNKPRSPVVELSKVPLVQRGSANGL
Adenosine receptor A2a (Homo sapiens), sequence (P29274 whole entry): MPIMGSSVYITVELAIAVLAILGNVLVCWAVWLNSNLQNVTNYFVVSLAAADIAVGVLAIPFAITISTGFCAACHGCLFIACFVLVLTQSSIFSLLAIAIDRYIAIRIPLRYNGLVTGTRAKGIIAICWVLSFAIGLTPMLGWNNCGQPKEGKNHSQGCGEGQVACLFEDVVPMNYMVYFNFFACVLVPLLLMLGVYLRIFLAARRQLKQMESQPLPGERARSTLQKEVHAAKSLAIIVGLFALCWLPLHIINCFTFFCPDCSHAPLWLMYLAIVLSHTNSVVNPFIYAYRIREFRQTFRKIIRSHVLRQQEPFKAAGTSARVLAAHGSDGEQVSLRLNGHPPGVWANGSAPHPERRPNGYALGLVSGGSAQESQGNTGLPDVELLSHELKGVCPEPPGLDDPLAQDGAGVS
Substance-K receptor (Homo sapiens), sequence (P21452 whole entry): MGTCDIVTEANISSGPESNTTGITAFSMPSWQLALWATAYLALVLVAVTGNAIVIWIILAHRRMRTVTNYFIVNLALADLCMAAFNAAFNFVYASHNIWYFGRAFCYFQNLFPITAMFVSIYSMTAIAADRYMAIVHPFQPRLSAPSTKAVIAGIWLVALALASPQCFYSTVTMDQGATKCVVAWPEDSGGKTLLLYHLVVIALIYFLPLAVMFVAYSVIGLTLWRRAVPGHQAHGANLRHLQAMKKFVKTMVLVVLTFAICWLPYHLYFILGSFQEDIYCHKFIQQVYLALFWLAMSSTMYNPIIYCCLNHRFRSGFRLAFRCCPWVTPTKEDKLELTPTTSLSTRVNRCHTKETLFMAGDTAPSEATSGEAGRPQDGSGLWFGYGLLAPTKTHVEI
Ribosomal protein S6 kinase alpha-3 (Homo sapiens), sequence (P51812 whole entry): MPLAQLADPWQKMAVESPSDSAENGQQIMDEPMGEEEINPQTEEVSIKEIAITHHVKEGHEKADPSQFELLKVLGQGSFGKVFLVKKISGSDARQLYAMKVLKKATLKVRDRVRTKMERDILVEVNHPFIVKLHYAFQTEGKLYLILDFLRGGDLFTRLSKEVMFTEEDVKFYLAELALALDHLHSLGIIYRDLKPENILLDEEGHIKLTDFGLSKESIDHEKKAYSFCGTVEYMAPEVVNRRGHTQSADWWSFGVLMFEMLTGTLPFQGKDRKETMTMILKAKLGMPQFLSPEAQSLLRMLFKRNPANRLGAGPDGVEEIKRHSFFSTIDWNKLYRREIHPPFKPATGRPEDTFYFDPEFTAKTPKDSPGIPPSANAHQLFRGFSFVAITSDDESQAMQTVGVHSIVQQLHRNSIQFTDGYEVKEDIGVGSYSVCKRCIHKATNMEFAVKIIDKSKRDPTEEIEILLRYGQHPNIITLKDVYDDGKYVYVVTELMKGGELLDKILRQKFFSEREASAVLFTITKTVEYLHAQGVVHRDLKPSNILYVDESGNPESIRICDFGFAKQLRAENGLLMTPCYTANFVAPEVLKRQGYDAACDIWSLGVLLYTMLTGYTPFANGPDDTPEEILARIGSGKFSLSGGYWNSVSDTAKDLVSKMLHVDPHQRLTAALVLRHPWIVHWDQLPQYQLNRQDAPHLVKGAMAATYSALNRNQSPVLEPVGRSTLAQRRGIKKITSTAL
Delta-type opioid receptor (Homo sapiens), sequence (P41143 whole entry): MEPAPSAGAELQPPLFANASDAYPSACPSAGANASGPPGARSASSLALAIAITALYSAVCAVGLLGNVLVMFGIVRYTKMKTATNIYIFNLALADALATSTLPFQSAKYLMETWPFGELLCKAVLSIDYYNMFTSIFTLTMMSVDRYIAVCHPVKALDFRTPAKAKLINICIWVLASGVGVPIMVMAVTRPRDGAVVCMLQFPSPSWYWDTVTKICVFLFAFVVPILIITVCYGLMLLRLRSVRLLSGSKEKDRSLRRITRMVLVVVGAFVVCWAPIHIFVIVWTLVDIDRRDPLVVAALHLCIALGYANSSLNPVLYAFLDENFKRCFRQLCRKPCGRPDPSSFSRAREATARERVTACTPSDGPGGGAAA

% of inhibition [1]: 61%
% of inhibition [2]: 98%
% of activity remaining [3]: 90%
% of inhibition [4]: 51%
Ki (Adenosine receptor A1): 0.012 µM
% of inhibition [5]: 98%
Ki [6]: 1.8 µM
% of inhibition [7]: 74%
% of inhibition [8]: 62%
% of inhibition [9]: 90%
Structure (SMILES): Clc1cc2c(NC3CCCC3)nnc(-c3ccncc3)c2cc1Cl

% of control [10]: 41%
% of control [11]: 49%
% of control [12]: 42%
% of control [13]: 36%
Ki [15]: 1.68 µM
% of control [16]: 26%
Ki [17]: 4.54 µM
% of control [18]: 48%
Structure (SMILES): Cc1nc(N2CC[C@H](O)C2)ncc1-c1cc(C(F)(F)F)cc2[nH]ncc12
% of inhibition [14]: 1%

Ki [19]: 1 µM
Structure (SMILES): Cc1ccc2nc(CNCCCOc3ccccc3)cc(O)c2c1 [UCSF924]
